Measured values from patent US20240209061A1, “FUSION PROTEINS AND USES THEREOF” (Pfizer Inc., priority 2020, published 2024).

Tests used:
[1] = test system: NY-ESO1-TCR+ Jurkat reporter cells; assay: Jurkat-NYESO1-IL-2-Luc and A375-CD64 co-stimulation assay; format: cell-based, human
Text: Jurkat-IL-2-Luc reporter cells (Promega, Product #J1631) were engineered with T cell receptor, TCR (Wargo J. Cancer Immunol Immunother 2009; Zhao Y. J Immunol 2005, Li Y, Nat Biotechnol 2005) against HLA-A2 restricted NY-ESO1 (SLLMWITQC-SEQ ID NO: 19) epitope using lentiviral transduction system. Human melanoma cells A375, which express human HLA-A*0201, were transduced with lentiviral vector containing endogenous codon for NY-ESO1 gene (Refseq accession NM_001327.2, CCDS14758.1). Upon expression, the construct underwent proteolytic cleavage at the ubiquitin/epitope junction, thus generating free, cytoplasmic epitope, which can be translocated into the endoplasmic reticulum and loaded onto class I HLA. A375-NY-ESO1 positive cells were treated with IFNγ to induce HLA expression and NY-ESO1 antigen presentation. The HLA expression and the antigen presentation was confirmed by Western Blot. The NY-ESO1^+-A375 cells were further engineered to express human FCγRI (CD64, GenBank:AAA58414.1, RefSeq:P12314.1) for cell surface assembly and displaying of CD80-Fc fusion proteins. The expression of FCγRI was confirmed by flow cytometry analysis.
A 96 well culture plate was seeded with NY-ESO1^+-A375 cells or NY-ESO1^+/FCγRI^+-A375 at 40,000 cells per well in 100 µL growth media (RPMI, 10% Heat Inactivated FBS, 200 μg/mL Hygromycin B, 1 mM sodium pyruvate, 0.1 mM MEM NEAA, 1 μg/mL puromycin) containing 10 ng/ml of human IFNγ (R&D Systems, product #285-IF) to induce MHC-A2 expression and grown overnight at 37° C. in CO2 incubator. To each well, NY-ESO1-TCR^+ Jurkat reporter cells, 100,000 (in 20 μL media), were added. 20 μL of serial dilutions of variant CD80-Fc fusion proteins with concentrations ranging from 0-1000 ng/ml (final concentrations per well) was added with appropriate controls. Assay plates were incubated for 6 hours at 37° C. in CO2 incubator. Following equilibration, 80 μL BioGlo luminescence reagent (BioGlo Luciferase assay kit, Promega, G7940) was added into each well. Plates were incubated for 5 minutes before reading luminescence on the EnSight™ plate reader (PerkinElmer).

[2] = mouse, in vivo, iv, 0.1 mg/kg
Method: PK of CD80-Fc fusion proteins was also assessed in transgenic mice expressing the human neonatal Fc receptor (huFcRn) a-chain transgene under the control of its natural human promoter. Female mice were dosed intravenously with CD80-Fc fusion proteins at 0.1 mg/kg, and blood was collected at the timepoints indicated on the graph. Levels of CD80-Fc in mouse plasma were measured as described above.

human PBMCs (T cells) = assay: Co-stimulation of primary human T cells with CEFT peptide; format: cell-based
Method: Serial, 3-fold dilutions of CD80-K89D-D90K-T28V-T57V-Fc and CD80-WT-Fc were prepared in complete IMDM medium (10% FBS, 1% Pen/Strep). CEFT peptide (PM-CEFT, JPT Peptide Technologies) was reconstituted in the same medium to the final concentration of 1 μg/ml. Frozen human PBMCs were thawed following a standard protocol and 250,000 were seeded per well of flat bottom 96-wells plates. CEFT peptide and appropriate concentration of the CD80-Fc fusion proteins were added to the cell suspension. Plates were sealed with breathable plate sealers and incubated for 72 hours at 37° C. in a CO2 incubator. Six hours prior to cell harvest, culture supernatants were collected and stored at −20° C. until used for cytokine analysis by MSD (V-Plex pro-inflammatory panel human kit, Meso Scale Discovery). At the same time brefeldin A solution was added to the cells, to enable intracellular accumulation of cytokines for evaluation by flow cytometry. Upon harvest, cells were stained for surface (among others CD25) and intracellular markers (among others Ki-67 and IFNγ) following a standard flow cytometry staining protocol. Data was collected using BD LSR Fortessa and analyzed using FlowJo v10 software.

CD3+ T cells from PBMCs = assay: Gene expression pattern in primary human T cells (Nanostring); format: cell-based; conditions: with anti-human CD3 antibody; 24 hour
Method: 96-well plates were coated overnight with 1 μg/ml of anti-human CD3 antibody (HIT3a clone, BioLegend). The following day, plates were washed 2× with PBS and blocked for 1 hour with 200 μl of complete IMDM (10% FBS, 1% Pen/Strep)/well. Upon removal of the blocking medium, plates were seeded with 250,000 PBMCs derived from three different donors and the following proteins: 1) 1.2 μg/ml CD80-K89D-D90K-T28V-T57V-Fc (concentration associated with max IL-2 production in similar assays), 2) 12 μg/ml CD80-WT-Fc (concentration associated with max IL-2 production in similar assay), and 3) 5 μg/ml anti-human CD28 antibody.
After 24 hour incubation at 37° C. in a CO2 incubator, cells were harvested and stained with viability dye and anti-human CD3 (UCHT1 clone, Biolegend)). Viable CD3+ T cells were flow sorted and used for RNA extraction following Qiagen RNeasy protocol. Isolated RNA was used for a gene expression analysis utilizing Nanostring platform.

[3] = test system: EMT6 murine breast cancer cells; assay: EMT6 breast cancer model, combination with talazoparib; format: in vivo, mouse; conditions: for Day 20 tumor volume: talazoparib 0.33 mg/kg daily where combined; for % tumor growth inhibition: Day 20, talazoparib 0.33 mg/kg where combined
Method: EMT6murine breast cancer cells (3×10^5) were orthotopically implanted in the mammary fat pad of female Balb/c mice. When tumors reached ˜90 mm^3 (day 5 after implantation), mice were randomized and dosed with PBS vehicle control, CD80-K89Q-D90Q-E23C-A26C-Fc (0.1 or 1 mg/kg), and/or 0.33 mg/kg talazoparib (Tala). CD80-D90Q-Fc was dosed on Days 0 and 3, talazoparib was dosed daily. Tumor volume was determined by caliper measurements obtained in 2 dimensions and calculated as width^2×length/2. Error bars are depicted as ±SEM

[4] = CEFT peptide, compared with CD80-WT-Fc

**Q.** Which “enhanced co-stimulation compared to CD80-WT-Fc” value [1] does the source give for “CD80-D90Q-Fc: variant CD80 ECD (D90Q) fused to human IgG1 Fc” here?
**A.** The value was “about 4 fold”.

**Q.** With “CD80-K89D-D90K-T28V-T57V-Fc: non-cysteine stabilized variant CD80-Fc fusion protein (K89D, D90K, T28V, T57V)” as the substance, how does the T1/2 [2] read?
**A.** Its T1/2 is 106 h.

**Q.** And the “increase in CD25 expression of CD8+ T cells” value (human PBMCs (T cells); [4])?
**A.** The value was ~30%.

**Q.** What about the “increase in Ki-67 staining (proliferative capacity) of CD8+ T cells” value (human PBMCs (T cells); [4]) of the same substance?
**A.** Its value is ~30%.

**Q.** What about the “IFNγ production relative to CD80-WT-Fc” value (human PBMCs (T cells); MSD in cell supernatant) of the same substance?
**A.** The value was “enhanced IFNγ production”.

**Q.** What about the “% of IFNγ+CD8+ T cells relative to CD80-WT-Fc” value (human PBMCs (T cells); flow cytometry) of the same substance?
**A.** Its value is “higher % of IFNγ+CD8+ T cells”.

**Q.** And the “IL7Rα- and TIGIT-encoding genes relative to anti-human CD3-only baseline, compared to CD80-WT-Fc” value (CD3+ T cells from PBMCs)?
**A.** The value was “greater decrease”.

**Q.** And the “expression level of OX-40-encoding gene relative to CD80-WT-Fc” value (CD3+ T cells from PBMCs)?
**A.** The value was “enhanced”.

**Q.** And the “expression of anti-apoptotic BCL-XL compared to CD80-WT-Fc” value (CD3+ T cells from PBMCs)?
**A.** Its value is “enhanced expression”.

**Q.** And the “expression of pro-apoptotic CASP8 compared to CD80-WT-Fc” value (CD3+ T cells from PBMCs)?
**A.** The value was “decreased expression”.

**Q.** And the “gene expression of IL-2, IL-21 and Lymphotoxin Alpha (LTA) compared to CD80-WT-Fc” value (CD3+ T cells from PBMCs)?
**A.** The value was “enhanced gene expression”.

**Q.** For “CD80-K89Q-D90Q-E23C-A26C-Fc: disulfide stabilized variant CD80-Fc fusion protein (K89Q, D90Q, E23C, A26C)”, which “Day 20 tumor volume” value ([3]; CD80-Fc dose 0.1 mg/kg) is on record?
**A.** Its value is 1149.2 mm^3.

**Q.** What about the “Day 20 tumor volume” value ([3]; CD80-Fc dose 1 mg/kg) of the same substance?
**A.** Its value is 637.5 mm^3.

**Q.** What about the “% tumor growth inhibition” value ([3]; CD80-Fc dose 0.1 mg/kg) of the same substance?
**A.** Its value is 43.1%.

**Q.** What about the “% tumor growth inhibition” value ([3]; CD80-Fc dose 1 mg/kg) of the same substance?
**A.** Its value is 70.5%.

**Q.** Which “enhanced co-stimulation compared to CD80-WT-Fc” value [1] does the source give for “CD80-K89Q-D90Q-Fc: variant CD80 ECD (K89Q, D90Q) fused to human IgG1 Fc” here?
**A.** Its value is “about 4 fold”.
